Laboratory results from patent US20100317671A1, “XANTHINE-BASED CYCLIC GMP-ENHANCING RHO-KINASE INHIBITOR INHIBITS PHYSIOLOGICAL ACTIVITIES OF LUNG EPITHELIAL CELL LINE” (KAOHSIUNG MEDICAL UNIVERSITY, priority 2008, published 2010).

Columns and labels:
Type in all cases: in vivo
[1] = test system: inflammatory cells in the lung lavage; assay: Inflammatory cells in lung lavage, bleomycin-induced IPF mice; design: WBC total (white blood cell total count) / NE (neutrophil) / LY (lymphocyte) / MO (monocyte) / EO (eosinophil) / BA (basophil): unit not given here; details: for Amount of WBC in lung lavage: lung inflammatory stage; for BA (basophil) / EO (eosinophil) / LY (lymphocyte) / MO (monocyte) / NE (neutrophil) / WBC total (white blood cell total count): lung lavage
Protocol: The amounts of the total cell, the neutrophill, the lymphocyte, the monocyte, the eosinophill and the basophill are analyzed by an automatic animal blood cell analyzer for evaluating the extent of the inflammation. […] The mice are euthanatized by administering the Urathane in a dose of 37.5 mg/10 g. The larynx is opened, the trachea is picked out, cut and held by a forcepts and a 0.58 mm PE tube is slowly inserted the trachea for infusing 0.5 ml PBS. The PBS is incubated for 15 seconds and then collected after gently massaging the lung tissue. 1 c.c. lung lavage is obtained after the above steps are repeated twice. The lung lavage is collected and transferred into a centrifuged tube for centrifuging at 1,200 rpm at 4° C. for 6 mins. The supernatant is collected and stored at −80° C. for zymography, and the pellet is suspended in PBS for calculating the WBC count. The pellet of the alveolar lavage is suspended in PBS and transferred into an eppendorff. The amount and kind of the inflammatory cell such as WBC total, the lymphocyte, the monocyte, the neutrophil, the eosinophil and the basophil are analyzed by an automatic animal blood cell analyzer.

[2] = test system: Smad 3; assay: Smad3 expression by western blotting, bleomycin mice; details: lung fibrotic stage
Protocol: (§1) At day 28, it is observed that expression of eNOS is decreased, the expressions of TGF-β, Smad 3 and HMGB1 are increased and there is significant collagen accumulation in the tissue sections.
The TGF-β (FIG. 12), CTGF (FIG. 13) and Smad3/p-Smad3 (FIG. 14) protein expressions in the lung tissue are analyzed by western blotting.
(§2) (1) The mice lung is immersed in the tissue lysis buffer and homogenized by an ultrasound sonicator on ice.
(§3) (2) The lysate is centrifuged at 13,000 g under 4° C. for 30 mins. The supernatant is collected and the protein concentration measurement adopts the“Bio-Rad DC protein assay”. After diluting the protein as specific concentrations, the sample buffer being one fourth of the sample volume is added thereinto for heating at 100° C. for 5 mins, and the sample is loaded into each wells of SDS-PAGE gel in turn. The running buffer is added into the electrophoresis tank for electrophoresis at 100 V, the voltage is adjusted as 200 V when the protein runs to the lower gel, and the electrophoresis is stopped when the SDS-PAGE dye enters the SDS-PAGE.
(§4) (3) The PVDF membrane is rinsed ith transfer buffer for use, and the protein on the SDS-PAGE is transferred to the PVDF membrane. The SDS-PAGE layer covering on the PVDF membrane is placed in a protein transfer tank immersed with the transfer buffer with the current set at 100V. […]

[3] = test system: HMGB1; assay: HMGB1 expression, bleomycin mice; details: lung inflammatory stage
Protocol: as §1, §2, §3
as §4, with “100V. After 80 mins, the transfer is completed and then the PVDF membrane is taken out.” for “100V.”

[4] = test system: collagen; assay: Collagen amount, bleomycin-induced IPF mice; details: for Fibrosis formation in lung tissue (collagen): day 28, p<0.01; for The amount of collagen: day 28 after BLM
Protocol: The amount of the collagen in the lung lavage is measured to reflect the fibrosis formation. […] (2) After the lung lavage is obtained, the chest of mice is opened and the lung lobes are cut one by one. […] The 1.5 ml eppendorffs are taken to arrange the calibration curve as follows. […] The eppendorff is then centrifuged at 12,000 rpm for 10 mins. The supernatant in the eppendorff is poured out slowly, 1 ml basic compound is added for dissolving the precipitation. After being violently shaken for 5 mins, the reaction is incubated for 3 hrs to stabilize the color. […] The amount of collagen is estimated through the 540 nm absorption measured by the ELISA reader.

[5] = day 7, dose 2.5 mg/kg (Combination: 2.5 mg/kg each drug)
[6] = day 28, dose 2.5 mg/kg (Combination: 2.5 mg/kg each drug)
[7] = dose 2.5 mg/kg (Combination: 2.5 mg/kg each drug)

CCC(C)(C)C(=O)O[C@H]1C[C@@H](C)C=C2C=C[C@H](C)[C@H](CC[C@@H](O)C[C@@H](O)CC(=O)O)[C@H]21.Cn1c(=O)c2c(ncn2CCN2CCN(c3ccccc3Cl)CC2)n(C)c1=O [KMUP-5]
Amount of WBC in lung lavage [1]: efficiently decrease | BA (basophil) [1, 5]: 0.02 ± 0.01 | EO (eosinophil) [1, 5]: 0.06 ± 0.04 | LY (lymphocyte) [1, 5]: 0.45 ± 0.17 | MO (monocyte) [1, 5]: 0.03 ± 0.02 | NE (neutrophil) [1, 5]: 0.18 ± 0.08 | WBC total (white blood cell total count) [1, 5]: 0.74 ± 0.21 | BA (basophil) [1, 6]: 0.01 ± 0.16 | EO (eosinophil) [1, 6]: 0.05 ± 0.3 | LY (lymphocyte) [1, 6]: 1.32 ± 1.59 | MO (monocyte) [1, 6]: 0.06 ± 0.11 | NE (neutrophil) [1, 6]: 0.14 ± 0.39 | WBC total (white blood cell total count) [1, 6]: 1.58 ± 2.24 | Expression of Smad 3 [2]: inhibit | Expression of HMGB1 [3]: efficiently decrease | Fibrosis formation in lung tissue (collagen) [4]: reduce | The amount of collagen [4, 7]: 79.40 ± 0.02 μg/lung

Cn1c(=O)c2c(ncn2CCN2CCN(c3ccccc3Cl)CC2)n(C)c1=O [KMUP-1, 7-[2-[4-(2-chlorobenzene)piperazinyl]ethyl]-1,3-dimethylxanthine]
Amount of WBC in lung lavage [1]: efficiently decrease | BA (basophil) ([1]; day 7, dose 1 mg/kg): 0.2 ± 0.01 | EO (eosinophil) ([1]; day 7, dose 1 mg/kg): 0.44 ± 0.02 | LY (lymphocyte) ([1]; day 7, dose 1 mg/kg): 1.83 ± 0.11 | MO (monocyte) ([1]; day 7, dose 1 mg/kg): 0.12 ± 0.02 | NE (neutrophil) ([1]; day 7, dose 1 mg/kg): 0.92 ± 0.13 | WBC total (white blood cell total count) ([1]; day 7, dose 1 mg/kg): 3.51 ± 0.01 | BA (basophil) [1, 5]: 0.11 ± 0.02 | EO (eosinophil) [1, 5]: 0.17 ± 0.11 | LY (lymphocyte) [1, 5]: 1.81 ± 0.09 | MO (monocyte) [1, 5]: 0.07 ± 0.01 | NE (neutrophil) [1, 5]: 0.91 ± 0.36 | WBC total (white blood cell total count) [1, 5]: 3.2 ± 0.49 | BA (basophil) ([1]; day 7, dose 5 mg/kg): 0.1 ± 0.02 | EO (eosinophil) ([1]; day 7, dose 5 mg/kg): 0.16 ± 0.01 | LY (lymphocyte) ([1]; day 7, dose 5 mg/kg): 1.76 ± 0.01 | MO (monocyte) ([1]; day 7, dose 5 mg/kg): 0.07 ± 0.01 | NE (neutrophil) ([1]; day 7, dose 5 mg/kg): 0.33 ± 0.14 | WBC total (white blood cell total count) ([1]; day 7, dose 5 mg/kg): 2.43 ± 0.01 | BA (basophil) ([1]; day 28, dose 1 mg/kg): 0.21 ± 0.06 | EO (eosinophil) ([1]; day 28, dose 1 mg/kg): 0.42 ± 0.17 | LY (lymphocyte) ([1]; day 28, dose 1 mg/kg): 1.89 ± 0.76 | MO (monocyte) ([1]; day 28, dose 1 mg/kg): 0.2 ± 0.25 | NE (neutrophil) ([1]; day 28, dose 1 mg/kg): 0.61 ± 0.11 | WBC total (white blood cell total count) ([1]; day 28, dose 1 mg/kg): 3.41 ± 0.54 | BA (basophil) [1, 6]: 0.11 ± 0.7 | EO (eosinophil) [1, 6]: 0.17 ± 0.12 | LY (lymphocyte) [1, 6]: 1.24 ± 0.43 | MO (monocyte) [1, 6]: 0.07 ± 0.02 | NE (neutrophil) [1, 6]: 0.36 ± 0.16 | WBC total (white blood cell total count) [1, 6]: 1.95 ± 0.92 | BA (basophil) ([1]; day 28, dose 5 mg/kg): 0.1 ± 0.02 | EO (eosinophil) ([1]; day 28, dose 5 mg/kg): 0.16 ± 0.01 | LY (lymphocyte) ([1]; day 28, dose 5 mg/kg): 1.1 ± 0.01 | MO (monocyte) ([1]; day 28, dose 5 mg/kg): 0.07 ± 0.01 | NE (neutrophil) ([1]; day 28, dose 5 mg/kg): 0.33 ± 0.14 | WBC total (white blood cell total count) ([1]; day 28, dose 5 mg/kg): 1.8 ± 0.01 | Expression of Smad 3 [2]: inhibit | Expression of HMGB1 [3]: efficiently decrease | Fibrosis formation in lung tissue (collagen) [4]: reduce | The amount of collagen ([4]; dose 1 mg/kg): 165.16 ± 0.11 μg/lung | The amount of collagen [4, 7]: 132.25 ± 5.95 μg/lung | The amount of collagen ([4]; dose 5 mg/kg): 108.32 ± 6.05 μg/lung
